Experimental data: patent US20130202698A1 (NANJING SANHOME PHARMACEUTICAL CO., LTD., priority 2005, published 2013)
Read-outs that look alike come from different tables or passages of the source. Marks after values point to notes of the source that are not given here.

Experiments:
[1] = Phase II clinical trial, oral tablets, departments of stomatology, adverse events; type: in vivo, human; conditions: human, in vivo, po
Procedure: Double-blinded randomized controlled trials were carried out to compare the adverse events of oral levo-ornidazole with racemate treatment groups. Two separate studies were conducted for patients with infections from either department of stomatology or obstetrics/gynecology.

[2] = tested on: amoeba dysentery; experiment: Pharmacodynamic study of cecum amoeba infection in mice; type: in vivo; conditions: male ICR mice infected in the cecum, drug i.v. at 24, 48, 72 hours
Procedure: Male ICR mice were injected with liquid containing about 200,000 units of amoeba dysentery in the cecum. The mice were randomly divided into 19 groups, each with 10. The mice in solvent control group were given blank solutions by tail vein injection. The treatment groups were injected intravenously at 24, 48, 72 hours after infection with active drugs. The animals were killed six days after infection. Intestinal mucosal biopsies were done, and comparative studies of different stages of the amoeba were studied under microscope. […] Calculated the dosage of 50% (ED50) and 90% (ED90) inhibition rate.

[3] = tested on: Beagle dogs; conditions: dog, in vivo, iv, 200 mg/kg
Procedure: In the studies, male and female Beagle dogs were treated at high doses of ornidazole enantiomers for 2 weeks, and then sacrificed for anatomical and pathological examinations. […] All the doses were administered in the levo- and racemate groups.

[4] = tested on: trichomonas vaginalis; experiment: Pharmacodynamic study of trichomonas vaginalis infection in mice; type: in vivo; parameters: ED90: unit not given beside the values; conditions: male ICR mice infected intraperitoneally, drug i.v. at 2, 24, 48, 72 hours
Procedure: Male ICR mice were injected intraperitoneally with liquid containing 0.4 ml 3×10^6 trichomonas vaginalis (trichomonas vaginalis from clinical patients). The mice were randomly divided into 19 groups, each with 10. The mice in solvent control group were given blank solutions by tail vein injection. The treatment groups were injected intravenously at 2, 24, 48, and 72 hours after infection with active drugs. The animals were killed five days after infection. Washing offal, fluid was centrifuged, and microscopically examined for life larvae. Autopsy was performed to determine whether there was any visceral and abdominal abscess, microscopic examination was conducted to determine the number of live trichomoniasis in the abscess. […] The abscess formation was inhibited in the treatment groups[…] and the number of live trichomoniasis was reduced. Calculate the dosage of 50% (ED50) and 90% (ED90) inhibition rate.

[5] = tested on: righting reflex; experiment: Hypnotic effect, loss of righting reflex; type: in vivo, mice; conditions: mouse, in vivo
Procedure: Thirty minutes after drug administration, the number of animals losing righting reflex (LORR) was recorded. […] Sodium pentobarbital was used at […] as the positive control.

[6] = tested on: motor balance and coordination; conditions: both, mouse, in vivo
Procedure: Motor balance and coordination were tested using a modified beam walking method. Mice were put on a smooth beam tilted at an angle of 70 degree. Mice passed the test by standing on the beam for 0.5 minute without falling off. All the mice were pre-screened before the studies, and a total of 110 mice were selected by passing the beam test in 3 consecutive tries. The selected mice were divided into 11 groups with 10 mice in each group (half male and half female). At certain time points after drug administration, mice were tested on the beam for 3 consecutive times. A mouse was counted as failing to the test if it fell off the beam for 2 or more times.
The dose volume was 0.2 mL/10 gram and infusion rate was 0.2 mL/10 seconds. Chlorpromazine was used as the positive control.

[7] = tested on: isoniazid-induced convulsion; experiment: Anticonvulsant effects on isoniazid-induced convulsion in mice; type: in vivo; conditions: Mean ± SD, n=10
Procedure: Mice are randomized into 4 treatment groups (n=10 with half male and half female): dextro- or levo-ornidazole (dosage 40, 80, 160 mg/kg), vehicle control group (15% propylene glycol in 0.9% sodium chloride, 20 mL/kg) and the positive control group. Animals are treated with known convulsion-inducing agents, followed by the drug or vehicle control given intravenously. The dose volume is 20 mL/kg with an infusion rate of 0.2 mL/10 seconds. The anticonvulsant effects are observed and recorded (see Tables 2-6).

[8] = Phase II clinical trial, intravenous, adverse events; type: in vivo, human; conditions: human, in vivo, iv
Procedure: A double-blinded randomized controlled trial was carried out to compare the adverse events between the I.V. levo-ornidazole and racemate treatment groups. […] The high rate of adverse events observed from the treatment by the racemic drug caused patient treatment non-compliant, which could be dangerous for life-threatening infections.

Compound: Cc1ncc([N+](=O)[O-])n1C[C@H](O)CCl [L-ornidazole, S-(−)-ornidazole]
- Bloating, # of Patients with AE [1]: 0
- Bloating, Incidence (%) [1]: 0.00%
- Constipation, # of Patients with AE [1]: 1
- Constipation, Incidence (%) [1]: 0.72%
- Drowsy, # of Patients with AE [1]: 0
- Drowsy, Incidence (%) [1]: 0.00%
- Dry mouth, # of Patients with AE [1]: 0
- Dry mouth, Incidence (%) [1]: 0.00%
- Headache, # of Patients with AE [1]: 0
- Headache, Incidence (%) [1]: 0.00%
- Hypersomnia, # of Patients with AE [1]: 0
- Hypersomnia, Incidence (%) [1]: 0.00^# %
- Hypodynamia, # of Patients with AE [1]: 0
- Hypodynamia, Incidence (%) [1]: 0.00%
- Loss of appetite, # of Patients with AE [1]: 0
- Loss of appetite, Incidence (%) [1]: 0.00%
- Nausea, # of Patients with AE [1]: 4
- Nausea, Incidence (%) [1]: 2.88%
- Palpitation, # of Patients with AE [1]: 0
- Palpitation, Incidence (%) [1]: 0.00%
- Patients with adverse events (total) [1]: 5 patients
- Pruritus, # of Patients with AE [1]: 0
- Pruritus, Incidence (%) [1]: 0.00%
- Rash, # of Patients with AE [1]: 0
- Rash, Incidence (%) [1]: 0.00%
- Sourregurgitation, # of Patients with AE [1]: 0
- Sourregurgitation, Incidence (%) [1]: 0.00%
- Stomach discomfort, # of Patients with AE [1]: 0
- Stomach discomfort, Incidence (%) [1]: 0.00^# %
- Stupor, # of Patients with AE [1]: 0
- Stupor, Incidence (%) [1]: 0.00%
- Total incidence rate of adverse events [1]: 3.60%
- Vertigo, # of Patients with AE [1]: 0
- Vertigo, Incidence (%) [1]: 0.00%
- Vomiting, # of Patients with AE [1]: 0
- Vomiting, Incidence (%) [1]: 0.00%
- ED50 ([2]; Mus musculus, iv, dosage of 50% inhibition rate): 10.5 mg/kg
- ED90 ([2]; dosage of 90% inhibition rate): 41.2
- Toxicity Severity [3]: Mild
- ED50 ([4]; Trichomonas vaginalis, dosage of 50% inhibition rate, read-out: ED50): 9.1 mg/kg
- ED90 ([4]; dosage of 90% inhibition rate): 32.6
- Number of animals Loss of Righting Flex 30 min Post-dose ([5]; both, 40 mg/kg, 30 min): 0
- Number of animals Loss of Righting Flex 30 min Post-dose ([5]; both, 80 mg/kg, 30 min): 0
- Number of animals Loss of Righting Flex 30 min Post-dose ([5]; both, 160 mg/kg, 30 min): 0
- Number of animals Loss of Righting Flex 30 min Post-dose ([5]; 160 mg/kg): none
- Number of Animals Fall Off ([6]; 40 mg/kg, 0.5 h): 0
- Number of Animals Fall Off ([6]; 40 mg/kg, 1 h): 1
- Number of Animals Fall Off ([6]; 40 mg/kg, 2 h): 0
- Number of Animals Fall Off ([6]; 40 mg/kg, 3 h): 0
- Number of Animals Fall Off ([6]; 40 mg/kg, 4 h): 0
- Number of Animals Fall Off ([6]; 80 mg/kg, 0.5 h): 0
- Number of Animals Fall Off ([6]; 80 mg/kg, 1 h): 0
- Number of Animals Fall Off ([6]; 80 mg/kg, 2 h): 0
- Number of Animals Fall Off ([6]; 80 mg/kg, 3 h): 1
- Number of Animals Fall Off ([6]; 80 mg/kg, 4 h): 1
- Number of Animals Fall Off ([6]; 160 mg/kg, 0.5 h): 0
- Number of Animals Fall Off ([6]; 160 mg/kg, 1 h): 0
- Number of Animals Fall Off ([6]; 160 mg/kg, 2 h): 3
- Number of Animals Fall Off ([6]; 160 mg/kg, 3 h): 2
- Number of Animals Fall Off ([6]; 160 mg/kg, 4 h): 1
- Convulsion Latency ([7]; 40 mg/kg i.v.): 37.1 ± 5.8 min
- Time to Death ([7]; 40 mg/kg i.v.): 47.6 ± 5.6 min
- Convulsion Latency ([7]; 80 mg/kg i.v.): 38.3 ± 6.3 min
- Time to Death ([7]; 80 mg/kg i.v.): 48.3 ± 9.6 min
- Convulsion Latency ([7]; 160 mg/kg i.v.): 45.0 ± 7.8 min
- Time to Death ([7]; 160 mg/kg i.v.): 75.2 ± 19.0 min
- Adverse events reported (total) [8]: 3
- Appetite drop, # of Patients with AE [8]: 1
- Appetite drop, Incidence (%) [8]: 0.74%
- Dizziness, # of Patients with AE [8]: 0
- Dizziness, Incidence (%) [8]: 0.00%
- Dry mouth, # of Patients with AE [8]: 0
- Dry mouth, Incidence (%) [8]: 0.00%
- Headache, # of Patients with AE [8]: 0
- Headache, Incidence (%) [8]: 0.00%
- Hypersomnia, # of Patients with AE [8]: 0
- Hypersomnia, Incidence (%) [8]: 0.00%
- Hypodynamia, # of Patients with AE [8]: 0
- Hypodynamia, Incidence (%) [8]: 0.00%
- Nausea, # of Patients with AE [8]: 0
- Nausea, Incidence (%) [8]: 0.00%
- Patients with adverse events (total) [8]: 2 patients
- Stomach discomfort, # of Patients with AE [8]: 0
- Stomach discomfort, Incidence (%) [8]: 0.00%
- Total incidence rate of adverse events [8]: 1.47%
- Vertigo, # of Patients with AE [8]: 0
- Vertigo, Incidence (%) [8]: 0.00%
- Vomiting, # of Patients with AE [8]: 0
- Vomiting, Incidence (%) [8]: 0.00%
- WBC decline, # of Patients with AE [8]: 2
- WBC decline, Incidence (%) [8]: 1.47%
